According to US9169254B2, “Spiroimidazolone derivative” (Chugai Seiyaku Kabushiki Kaisha, priority 2009, dated 2015):

The compounds below were run against T1, human PTH1 receptor (Homo sapiens, UniProt Q03431) (assay: In vitro cAMP signal activity in HKRK-B7 cells (LLC-PK1 cells overexpressing the human PTH1 receptor)). Details: HKRK-B7 cells; compound at 1×10^−3 M; […]; 0.1 µM.
T1 sequence (Q03431 27-593): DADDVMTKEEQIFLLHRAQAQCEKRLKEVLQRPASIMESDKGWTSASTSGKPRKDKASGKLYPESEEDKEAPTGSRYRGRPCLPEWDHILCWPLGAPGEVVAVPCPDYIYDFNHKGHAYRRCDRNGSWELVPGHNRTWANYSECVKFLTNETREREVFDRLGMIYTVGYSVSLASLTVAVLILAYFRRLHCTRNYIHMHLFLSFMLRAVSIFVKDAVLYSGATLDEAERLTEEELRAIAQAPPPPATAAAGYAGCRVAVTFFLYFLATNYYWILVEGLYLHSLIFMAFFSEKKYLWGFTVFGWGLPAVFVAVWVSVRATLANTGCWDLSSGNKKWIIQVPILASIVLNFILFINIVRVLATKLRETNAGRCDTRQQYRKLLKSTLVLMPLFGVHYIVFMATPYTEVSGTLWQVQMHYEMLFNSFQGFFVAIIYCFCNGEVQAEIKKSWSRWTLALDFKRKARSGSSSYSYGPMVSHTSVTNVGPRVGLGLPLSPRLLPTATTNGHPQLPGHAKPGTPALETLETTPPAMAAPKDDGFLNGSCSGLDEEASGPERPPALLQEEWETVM
Format: cell-based

Compound	cAMP production activity (%)
Cc1cc(N(C)C(N)=S)cc(C)c1CCS(=O)(=O)N1CCC2(CC1)N=C([C@H]1CC[C@H](C)CC1)NC2=O [Compound 474, 1-(3,5-Dimethyl-4-{2-[2-(4-methyl-cyclohexyl)-4-oxo-1,3,8-triaza-spiro[4.5]dec-1-ene-8-sulfonyl]-ethyl}-phenyl)-1-methyl-thiourea]	89
Cc1cc(N(C)c2nccs2)cc(C)c1CCS(=O)(=O)N1CCC2(CC1)N=C([C@H]1CC[C@H](C)CC1)NC2=O [Compound 475, 8-{2-[2,6-Dimethyl-4-(methyl-thiazol-2-yl-amino)-phenyl]-ethanesulfonyl}-2-(4-methyl-cyclohexyl)-1,3,8-triaza-spiro[4.5]dec-1-en-4-one]	84

Same assay, conditions: HKRK-B7 cells; compound at 1×10^−3 M; cAMP produced as percentage of that produced by hPTH(1-34) at 100 nM

cAMP production activity (%)	Compound
90	Cc1cc(N(C)C(N)=O)cc(C)c1CCS(=O)(=O)N1CCC2(CC1)N=C(C1CCC(C)CC1)NC2=O (centres unmarked) [Compound 470, 1-(3,5-Dimethyl-4-{2-[2-(4-methyl-cyclohexyl)-4-oxo-1,3,8-triaza-spiro[4.5]dec-1-ene-8-sulfonyl]-ethyl}-phenyl)-1-methyl-urea]
111	Cc1cc(N(C)C(N)=O)cc(C)c1/C=C/S(=O)(=O)N1CCC2(CC1)N=C(C1CCC(C(F)(F)F)CC1)NC2=O (centres unmarked) [Compound 471, 1-(3,5-Dimethyl-4-{(E)-2-[4-oxo-2-(4-trifluoromethyl-cyclohexyl)-1,3,8-triaza-spiro[4.5]dec-1-ene-8-sulfonyl]-vinyl}-phenyl)-1-methyl-urea]
104	Cc1cc(N(C)C(N)=O)cc(C)c1CCS(=O)(=O)N1CCC2(CC1)N=C(C1CCC(C(F)(F)F)CC1)NC2=O (centres unmarked) [Compound 472, 1-(3,5-Dimethyl-4-{2-[4-oxo-2-(4-trifluoromethyl-cyclohexyl)-1,3,8-triaza-spiro[4.5]dec-1-ene-8-sulfonyl]-ethyl}-phenyl)-1-methyl-urea]
61	COC(=O)Cn1ccc2c(/C=C/S(=O)(=O)N3CCC4(CC3)N=C(C3CCCCC3)NC4=O)cccc21 [Compound 476, {4-[(E)-2-(2-cyclohexyl-4-oxo-1,3,8-triaza-spiro[4.5]dec-1-ene-8-sulfonyl)-vinyl]-indol-1-yl}-acetic acid methyl ester]
31	O=C(N1CCOCC1)n1ccc2c(/C=C/S(=O)(=O)N3CCC4(CC3)N=C(C3CCCCC3)NC4=O)cccc21 [Compound 477, 2-cyclohexyl-8-{(E)-2-[1-(morpholine-4-carbonyl)-1H-indol-4-yl]-ethenesulfonyl}-1,3,8-triaza-spiro[4.5]dec-1-en-4-one]
33	O=C1NC(C2CCCCC2)=NC12CCN(S(=O)(=O)/C=C/c1cccc3c1ccn3CCCCO)CC2 [Compound 478, 2-cyclohexyl-8-{(E)-2-[1-(4-hydroxy-butyl)-1H-indol-4-yl]-ethenesulfonyl}-1,3,8-triaza-spiro[4.5]dec-1-en-4-one]
15	O=C1NC(C2CCCCC2)=NC12CCN(S(=O)(=O)/C=C/c1cccc3cc[nH]c13)CC2 [Compound 479, 2-cyclohexyl-8-[(E)-2-(1H-indol-7-yl)-ethenesulfonyl]-1,3,8-triaza-spiro[4.5]dec-1-en-4-one]
44	O=C1NC(C2CCCCC2)=NC12CCN(S(=O)(=O)/C=C/c1cccc3c1ccn3CCC(O)CO)CC2 (centres unmarked) [Compound 480, 2-cyclohexyl-8-{(E)-2-[1-(3,4-dihydroxy-butyl)-1H-indol-4-yl]-ethenesulfonyl}-1,3,8-triaza-spiro[4.5]dec-1-en-4-one]
59	CC(=O)NCCc1ccc(/C=C/S(=O)(=O)N2CCC3(CC2)N=C(C2CCCCC2)NC3=O)cc1 [Compound 481, N-(2-{4-[(E)-2-(2-cyclohexyl-4-oxo-1,3,8-triaza-spiro[4.5]dec-1-ene-8-sulfonyl)-vinyl]-phenyl}-ethyl)-acetamide]
38	CC(=O)NC(C)c1ccc(/C=C/S(=O)(=O)N2CCC3(CC2)N=C(C2CCCCC2)NC3=O)cc1 (centres unmarked) [Compound 482, N-(1-{4-[(E)-2-(2-cyclohexyl-4-oxo-1,3,8-triaza-spiro[4.5]dec-1-ene-8-sulfonyl)-vinyl]-phenyl}-ethyl)-acetamide]
41	O=C1NC(C2CCCCC2)=NC12CCN(S(=O)(=O)/C=C/c1cccc3c1ccn3Cc1nccs1)CC2 [Compound 483, 2-cyclohexyl-8-[(E)-2-(1-thiazol-2-ylmethyl-1H-indol-4-yl)-ethenesulfonyl]-1,3,8-triaza-spiro[4.5]dec-1-en-4-one]
47	NS(=O)(=O)CCCn1ccc2c(/C=C/S(=O)(=O)N3CCC4(CC3)N=C(C3CCCCC3)NC4=O)cccc21 [Compound 484, 3-{4-[(E)-2-(2-cyclohexyl-4-oxo-1,3,8-triaza-spiro[4.5]dec-1-ene-8-sulfonyl)-vinyl]-indol-1-yl}-propane-1-sulfonic acid amide]
7.7	CN1CCN(C(=O)Nc2ccc(/C=C/S(=O)(=O)N3CCC4(CC3)N=C(C3CCCCC3)NC4=O)c(C(F)(F)F)c2)CC1 [Compound 485, 4-methyl-piperazine-1-carboxylic acid {4-[(E)-2-(2-cyclohexyl-4-oxo-1,3,8-triaza-spiro[4.5]dec-1-ene-8-sulfonyl)-vinyl]-3-trifluoromethyl-phenyl}-amide]
59	CC(C)COC(=O)NCc1ccc(/C=C/S(=O)(=O)N2CCC3(CC2)N=C(C2CCCCC2)NC3=O)cc1 [Compound 486, {4-[(E)-2-(2-cyclohexyl-4-oxo-1,3,8-triaza-spiro[4.5]dec-1-ene-8-sulfonyl)-vinyl]-benzyl}-carbamic acid isobutyl ester]
49	O=C1NC(C2CCCCC2)=NC12CCN(S(=O)(=O)/C=C/c1ccc3c(ccn3CCOCCO)c1)CC2 [Compound 487, 2-cyclohexyl-8-((E)-2-{1-[2-(2-hydroxy-ethoxy)-ethyl]-1H-indol-5-yl}-ethenesulfonyl)-1,3,8-triaza-spiro[4.5]dec-1-en-4-one]
48	Cc1cc2[nH]ccc2cc1/C=C/S(=O)(=O)N1CCC2(CC1)N=C(C1CCCCC1)NC2=O [Compound 488, 2-cyclohexyl-8-[(E)-2-(6-methyl-1H-indol-5-yl)-ethenesulfonyl]-1,3,8-triaza-spiro[4.5]dec-1-en-4-one]
37	O=C(CO)NCc1ccc(/C=C/S(=O)(=O)N2CCC3(CC2)N=C(C2CCCCC2)NC3=O)cc1 [Compound 489, N-{4-[(E)-2-(2-cyclohexyl-4-oxo-1,3,8-triaza-spiro[4.5]dec-1-ene-8-sulfonyl)-vinyl]-benzyl}-2-hydroxy-acetamide]
26	CN(C)C(=O)NCCc1ccc(/C=C/S(=O)(=O)N2CCC3(CC2)N=C(C2CCCCC2)NC3=O)cc1 [Compound 490, 3-(2-{4-[(E)-2-(2-cyclohexyl-4-oxo-1,3,8-triaza-spiro[4.5]dec-1-ene-8-sulfonyl)-vinyl]-phenyl}-ethyl)-1,1-dimethyl-urea]
58	Nc1cc(C(F)(F)F)c(/C=C/S(=O)(=O)N2CCC3(CC2)N=C(C2CCCCC2)NC3=O)c(C(F)(F)F)c1 [Compound 491, 8-[(E)-2-(4-amino-2,6-bis-trifluoromethyl-phenyl)-ethenesulfonyl]-2-cyclohexyl-1,3,8-triaza-spiro[4.5]dec-1-en-4-one]
37	O=C1NC(C2CCCCC2)=NC12CCN(S(=O)(=O)/C=C/c1cc3cc[nH]c3cc1C(F)(F)F)CC2 [Compound 492, 2-cyclohexyl-8-[(E)-2-(6-trifluoromethyl-1H-indol-5-yl)-ethenesulfonyl]-1,3,8-triaza-spiro[4.5]dec-1-en-4-one]
50	COC(=O)CNc1ccc(/C=C/S(=O)(=O)N2CCC3(CC2)N=C(C2CCCCC2)NC3=O)c(C(F)(F)F)c1 [Compound 493, {4-[(E)-2-(2-cyclohexyl-4-oxo-1,3,8-triaza-spiro[4.5]dec-1-ene-8-sulfonyl)-vinyl]-3-trifluoromethyl-phenylamino}-acetic acid methyl ester]
66	O=C(CNc1ccc(/C=C/S(=O)(=O)N2CCC3(CC2)N=C(C2CCCCC2)NC3=O)c(C(F)(F)F)c1)NCCO [Compound 494, 2-{4-[(E)-2-(2-cyclohexyl-4-oxo-1,3,8-triaza-spiro[4.5]dec-1-ene-8-sulfonyl)-vinyl]-3-trifluoromethyl-phenylamino}-N-(2-hydroxy-ethyl)-acetamide]
21	CN(CCO)S(=O)(=O)c1ccc(/C=C/S(=O)(=O)N2CCC3(CC2)N=C(C2CCCCC2)NC3=O)c(C(F)(F)F)c1 [Compound 495, 4-[(E)-2-(2-cyclohexyl-4-oxo-1,3,8-triaza-spiro[4.5]dec-1-ene-8-sulfonyl)-vinyl]-N-(2-hydroxy-ethyl)-N-methyl-3-trifluoromethyl-benzenesulfonamide]
24	O=C1NC(C2CCCCC2)=NC12CCN(S(=O)(=O)/C=C/c1ccc(S(=O)(=O)N(CCO)CCO)cc1C(F)(F)F)CC2 [Compound 496, 4-[(E)-2-(2-cyclohexyl-4-oxo-1,3,8-triaza-spiro[4.5]dec-1-ene-8-sulfonyl)-vinyl]-N,N-bis-(2-hydroxy-ethyl)-3-trifluoromethyl-benzenesulfonamide]
